# Measurements reported in patent US10561712B2, “Treatment of cancer and inhibition of metastasis using hemoglobin beta subunit” (UNIVERSITY OF MARYLAND, BALTIMORE, priority 2014, dated 2020).
# Experiments:
# [1] = system: MCF-7 breast carcinoma cells; experiment: Viability of cancerous cell lines, MCF-7; details: MTS-based assay; FIG. 3E
# Protocol: (§1) Neuroblastoma cells were seeded (3×10^4 per well) in a 96-well flat-bottomed tissue culture plate. After an incubation of 24 hr, cells were washed and incubated with the relevant factors (detailed in the following sections) diluted in starvation medium (RPMI-1640 containing 5% bovine serum albumin (BSA); Biological Industries, Kibbutz Beit Haemek, Israel; Sigma-Aldrich). Cell viability under normal conditions (starvation medium containing BSA) or after incubation with the relevant factors was monitored after 72 hr using an XTT (XTT cell proliferation kit; Biological Industries) or MTS-based (CellTiter 96® AQueous One Solution Cell Proliferation Assay; Promega) viability assays according to manufacturer instructions. Cells were also counted using the trypan-blue exclusion assay to verify the results obtained by XTT and MTS-based viability assays.
# When incubated with the highest amount of HBB (100 μg), the viability of the following cell lines was inhibited: the breast cancer cell lines T47D and MCF-7, the prostate cancer cell line 22RVi, the cervical cancer cell line Hela, and the melanoma cell lines RALL and RKTJ.
# neuroblastoma cells = experiment: Viability of neuroblastoma cells with N- and C-terminal CNBr fragments of HBB; assay type: cell-based, human; details: MTS-based proliferation assay and trypan blue exclusion; 72 hr; FIG. 5B
# Protocol: as §1
# Human HBB was incubated at a concentration of 2 mg/ml with 50 mg/ml CNBr (Sigma-Aldrich) in 5% trifluoroacetic acid (Halocarbon). […] After 72 hr of incubation cell viability was assessed as described below.
# In order to pin-point the active fragment of the human HBB protein, the protein was cleaved to two fragments using cyanogen bromide (CNBr). […] Significance was evaluated using Student's t-test for each variant incubated with N- or C-terminal fragments of human HBB compared to incubation with control media (not shown).
# [2] = system: MicroNB cells (human neuroblastoma lung micrometastatic variant, MHH-NB11); experiment: MTS-based viability assay, MicroNB cells; assay type: cell-based; details: 72 hr incubation, versus control media
# From the text: (§2) The human neuroblastoma lung micrometastatic (MicroNB) and macrometastatic (MacroNB) variants were generated using a mouse model for human neuroblastoma metastasis (Nevo et al., 2008) from the parental cell lines MHH-NB11 (Pietsch et al., 1988) and SH-SY5Y (Biedler et al., 1978) as detailed here (Edry Botzer et al., 2011), and were maintained in culture as previously described (Nevo et al., 2008). The MicroNB and MacroNB variants were previously designated DisNB and MetNB, respectively (Edry Botzer et al., 2011). Authentication of MicroNB and MacroNB cells was performed by short tandem repeat analysis of DNA using the Type-it Microsatellite PCR Kit (Qiagen, Valencia, Calif.), for the genes published by the American Type Culture Collection (ATCC) (Manassas, Va.). The parental cell line MHH-NB11 was kindly provided by Dr. T. Pietsch (Department of Neuropathology, University of Bonn Medical Center, Bonn, Germany).
# as §1
# Circular dichroism analysis of human hemoglobin (HB), hemoglobin subunit alpha (HBA) and subunit beta (HBB) indicated a helical structure for all three proteins (FIG. 3C). […] Neuroblastoma cells were seeded (3×10^4 per well) in a 96 well flat-bottomed tissue culture plate. After 24 hr of incubation cells were washed and incubated with human HBB dissolved in starvation medium (RPMI 5% BSA) to the indicated concentrations. Cell viability under normal conditions (starvation medium) or after incubation with human HBB was monitored after an incubation of 72 hr using an MTS-based viability assay (CellTiter 96® AQueous One Solution Cell Proliferation Assay, Promega) according to the manufacturer instructions. Data are means of three independent experiments±SD. Significance was evaluated using Student's t-test for each variant incubated with human HBB compared to incubation with control media (con).
# [3] = system: MacroNB cells (human neuroblastoma lung macrometastatic variant); experiment: MTS-based viability assay, MacroNB cells; assay type: cell-based; details: 72 hr incubation, versus control media
# From the text: as §2
# Neuroblastoma cells were seeded (3×10^4 per well) in a 96-well flat-bottomed tissue culture plate. […] Cell viability under normal conditions (starvation medium containing BSA) or after incubation with the relevant factors was monitored after 72 hr using an XTT (XTT cell proliferation kit; Biological Industries) or MTS-based (CellTiter 96® AQueous One Solution Cell Proliferation Assay; Promega) viability assays according to manufacturer instructions. Cells were also counted using the trypan-blue exclusion assay to verify the results obtained by XTT and MTS-based viability assays.
# Circular dichroism analysis of human hemoglobin (HB), hemoglobin subunit alpha (HBA) and subunit beta (HBB) indicated a helical structure for all three proteins (FIG. 3C). […] Cell viability under normal conditions (starvation medium) or after incubation with human HBB was monitored after an incubation of 72 hr using an MTS-based viability assay (CellTiter 96® AQueous One Solution Cell Proliferation Assay, Promega) according to the manufacturer instructions. […] Significance was evaluated using Student's t-test for each variant incubated with human HBB compared to incubation with control media (con).
# [4] = system: MicroNB cells inoculated to the adrenal gland; experiment: Orthotopic MicroNB neuroblastoma model, HBB11p i.v. or inhaled versus PBS (Example 7); assay type: in vivo, athymic nude mice; details: for size of local tumors versus PBS-treated mice: FIG. 7B, 7C
# Protocol: (§3) An orthotopic inoculation to the adrenal gland of athymic nude mice was performed with either 50 μl of PBSX1 supplemented with 5% BSA, or with 1×10^6 MicroNB cells (generated as described previously (Edry Botzer et al., 2011)) suspended in 50 μl of PBSX1 supplemented with 5% BSA. The intra-adrenal inoculation was performed as detailed here (Nevo et al., 2008). In short, anesthesia was induced by ketamine (100 mg/kg body weight) and 2% xylazine (10 mg/kg body weight) administered intraperitoneally. Tumor cells (1×10^6/50 μl) or PBSX1 5% BSA (50 μl) were injected orthotopically into the left adrenal gland of nude mice.
# (§4) The development of local tumors in the adrenal gland was monitored and measured weekly with an external digital caliper. The tumor volume in mm^3 was calculated by the ellipsoid volume calculation formula: Volume=[…] (Tomayko and Reynolds, 1989). At the end of the experiments, local adrenal tumors were weighed.
# (§5) For examining the presence of micrometastatic cells in the lungs and bone marrow of mice, organs were harvested at the end of the experiment, and immediately snap frozen in dry ice. RNA was isolated from frozen tissues and used for the generation of first-strand cDNA using an M-MLV Reverse Transcriptase (See below, “RNA preparation and Reverse Transcription Polymerase Chain Reaction”). Quantification of human cells in mouse organs was determined by quantitative real-time PCR (qRT-PCR) assays.
# (§6) Mice were orthotopically inoculated with MicroNB cells to the adrenal gland to generate local adrenal tumors and lung and bone marrow micrometastasis (see “Orthotopic inoculation of tumor cells”). Fourteen days post tumor cell inoculation mice were treated either intravenously or intranasally with 1 mg/kg (0.02 mg/mouse) of the short inhibitory human HBB peptide, Metox, once a week for 8 weeks.
# (§7) For intranasal administration of Metox, the lyophilized peptide was dissolved prior to each administration in Dimethyl Sulfoxide (DMSO) (Sigma-Aldrich) to a concentration of 0.013 mg/μl, and then diluted in sterile PBSX1 to a concentration of 0.4 μg/μl. The dissolved peptide was filtered (0.2 μm) and mice were forced to inhale 50 μl of Metox (0.02 mg/mouse). Control group was forced to inhale 50 μl of a control scrambled peptide, scrambled-Metox (see “Solid-phase synthesis of Metox and scrambled-Metox peptides”).
# Twenty four mice were orthotopically inoculated to the adrenal gland with MicroNB cells. Two weeks post inoculation, mice were either intravenously (IV) injected with HBB11p or PBS, or forced to inhale a droplet of soluble HBB11p, once a week for 8 weeks (FIG. 7A). Mice were monitored weekly for tumor volume. At the end of the experiment, local tumors were weighed and organs were harvested and examined for human neuroblastoma cells and for HBB2 expression using real time PCR (FIG. 7A).
# [5] = system: MicroNB cells inoculated to the adrenal gland; experiment: Orthotopic MicroNB neuroblastoma model, intranasal Metox versus scrambled-Metox (Example 8); assay type: in vivo, athymic nude mice; details: intranasal 1 mg/kg once a week for 8 weeks
# Protocol: as §3, §4, §5, §6, §7
# In an experiment similar to that described in Example 7, athymic nude mice were orthotopically inoculated with MicroNB cells to the adrenal gland. […] Mice were monitored for tumor volume on a weekly basis.
# [6] = HBB11p once a week for 8 weeks, data not shown
substance,measurement,setting,value
"whole human hemoglobin protein: native human hemoglobin (Sigma), whole protein [reference compound]",influence on viability of MCF-7 breast carcinoma cells (in words),[1],inhibited cell viability as well but not to the same extent as HBB
"C-terminal fragment: 91 amino acid C-terminal fragment of human HBB from CNBr cleavage, SEQ ID NO:4",influence on neuroblastoma cell viability (in words),neuroblastoma cells,responsible for the inhibitory activity
"HBA: alpha subunit of human hemoglobin, HPLC-separated from native human hemoglobin [reference compound]",influence on viability of MicroNB cells (in words),[2],did not influence cell viability
same,influence on viability of MacroNB cells (in words),[3],did not influence cell viability
"HBB2: beta 2 subunit of mouse hemoglobin, SEQ ID NO:1; HPLC peak no. 4 of mouse lung-derived factors",influence on viability of MicroNB cells (in words),[2],inhibited cell viability
same,influence on viability of MacroNB cells (in words),[3],inhibited cell viability
ENFRLLGNVLVCVLA (listed as Homo sapiens) [HBB11p],influence on viability of MicroNB cells (in words),[2]; listed as Peptide number 11,significantly inhibited the viability
same,influence on viability of MicroNB cells (in words),[2]; listed as peptide 11,even greater than that caused by HBB
same,bone marrow metastasis versus PBS-treated mice,[4]; [6],significantly inhibited as well
same,liver metastasis versus PBS-treated mice,[4]; [6],significantly inhibited as well
same,spleen metastasis versus PBS-treated mice,[4]; [6],significantly inhibited as well
same,lung metastasis versus PBS-treated mice,"[4]; HBB11p once a week for 8 weeks, real time PCR, FIG. 7D",significantly inhibited
same,size of local tumors versus PBS-treated mice,[4]; inhaled droplet of HBB11p once a week for 8 weeks,significantly smaller
same,size of local tumors versus PBS-treated mice,[4]; intravenous HBB11p once a week for 8 weeks,significantly smaller
same,weight of local tumors of scrambled-Metox treated mice relative to Metox treated mice,"[5]; 70 days post inoculation, FIG. 8C, 8D",significantly higher
same,metastatic load of MicroNB cells in lungs versus scrambled-Metox,"[5]; Real-Time PCR, FIG. 8E",significantly lower
same,metastatic load of MicroNB cells in bone marrow versus scrambled-Metox,"[5]; Real-Time PCR, FIG. 8F",significantly lower
same,"local tumor volume, Metox versus scrambled-Metox treated mice","[5]; twenty days after inoculation, more significant with time, FIG. 8B",a difference was apparent
"N-terminal fragment: N-terminal fragment of human HBB from CNBr cleavage, SEQ ID NO:3",influence on neuroblastoma cell viability (in words),neuroblastoma cells,exhibited an inhibitory effect however to a lesser extent
